A short description of data set [1]: refractive index (Na D-line) (dimensionless). Conditions: 298.2 K; 101.33 kPa; Liquid; Standard Abbe refractometry.
For data set [2] the following is noted: Liquid; for mass density: 298.2 K, 101.33 kPa.

Here are results for two molecules from the NIST ThermoML archive (doi:10.1016/j.jct.2005.03.003).

Numbers after ± are expanded uncertainties.

For the molecule `CC(=O)O` [acetic acid], in data set [1], the refractive index was 1.3715 ± 0.0012. In addition, the mass density in data set [2] was found to be 1049.44 ± 3 kg/m3. Further, the Normal boiling temperature in data set [2] (Fischer boiling point apparatus:FP) came out at 118.1 ± 0.2 °C.

On to `CCCCOC(=O)c1ccccc1C(=O)OCCCC` [dibutyl phthalate], for which the refractive index in data set [1] stood at 1.4906 ± 0.0013. The mass density in data set [2] (Vibrating tube method) stood at 1050.13 ± 1.4 kg/m3. Further, the Normal boiling temperature in data set [2] (Fischer boiling point apparatus) is 340.1 ± 0.2 °C.

Broadly, the refractive index is the speed of light in vacuum divided by its phase velocity in the sample. The term mass density denotes the mass of a sample divided by its volume.
